Assay results published in patent US9440952B2, “Compounds inhibiting leucine-rich repeat kinase enzyme activity” (Merck Sharp & Dohme Corp., priority 2013, dated 2016).

Molecular target: T1, LRRK2(G2019S mutation, GST-LRRK2(amino acids 970-2527)) (Homo sapiens, UniProt Q5S007, G2019S)
T1 construct: GST-LRRK2(amino acids 970-2527); GST (N); purchased Life Technologies Corporation
Assay: LRRK2 Km ATP LanthaScreen Assay
Assay type: biochemical
Conditions: Km ATP LanthaScreen Assay; LRRK2 G2019S; mean IC50 values; read-out: LRRK2 IC50
Protocol: Unless otherwise noted, all LRRK2 IC50 data presented in tables refers to the LRRK2 Km ATP LanthaScreen™ Assay that is described in the Biological Assay section.
The data presented for the 5 mM and Km ATP LanthaScreen™ Assay represents mean IC50 values based on several test results and may have reasonable. deviations depending on the specific conditions and reagents used. Reagents for the LRRK2 5 mM and Km ATP LanthaScreen™ Assay were purchased from Life Technologies Corporation.
Results are analysed using Assay Data Analyzer.

T1 sequence (Q5S007 970-2527 G2019S): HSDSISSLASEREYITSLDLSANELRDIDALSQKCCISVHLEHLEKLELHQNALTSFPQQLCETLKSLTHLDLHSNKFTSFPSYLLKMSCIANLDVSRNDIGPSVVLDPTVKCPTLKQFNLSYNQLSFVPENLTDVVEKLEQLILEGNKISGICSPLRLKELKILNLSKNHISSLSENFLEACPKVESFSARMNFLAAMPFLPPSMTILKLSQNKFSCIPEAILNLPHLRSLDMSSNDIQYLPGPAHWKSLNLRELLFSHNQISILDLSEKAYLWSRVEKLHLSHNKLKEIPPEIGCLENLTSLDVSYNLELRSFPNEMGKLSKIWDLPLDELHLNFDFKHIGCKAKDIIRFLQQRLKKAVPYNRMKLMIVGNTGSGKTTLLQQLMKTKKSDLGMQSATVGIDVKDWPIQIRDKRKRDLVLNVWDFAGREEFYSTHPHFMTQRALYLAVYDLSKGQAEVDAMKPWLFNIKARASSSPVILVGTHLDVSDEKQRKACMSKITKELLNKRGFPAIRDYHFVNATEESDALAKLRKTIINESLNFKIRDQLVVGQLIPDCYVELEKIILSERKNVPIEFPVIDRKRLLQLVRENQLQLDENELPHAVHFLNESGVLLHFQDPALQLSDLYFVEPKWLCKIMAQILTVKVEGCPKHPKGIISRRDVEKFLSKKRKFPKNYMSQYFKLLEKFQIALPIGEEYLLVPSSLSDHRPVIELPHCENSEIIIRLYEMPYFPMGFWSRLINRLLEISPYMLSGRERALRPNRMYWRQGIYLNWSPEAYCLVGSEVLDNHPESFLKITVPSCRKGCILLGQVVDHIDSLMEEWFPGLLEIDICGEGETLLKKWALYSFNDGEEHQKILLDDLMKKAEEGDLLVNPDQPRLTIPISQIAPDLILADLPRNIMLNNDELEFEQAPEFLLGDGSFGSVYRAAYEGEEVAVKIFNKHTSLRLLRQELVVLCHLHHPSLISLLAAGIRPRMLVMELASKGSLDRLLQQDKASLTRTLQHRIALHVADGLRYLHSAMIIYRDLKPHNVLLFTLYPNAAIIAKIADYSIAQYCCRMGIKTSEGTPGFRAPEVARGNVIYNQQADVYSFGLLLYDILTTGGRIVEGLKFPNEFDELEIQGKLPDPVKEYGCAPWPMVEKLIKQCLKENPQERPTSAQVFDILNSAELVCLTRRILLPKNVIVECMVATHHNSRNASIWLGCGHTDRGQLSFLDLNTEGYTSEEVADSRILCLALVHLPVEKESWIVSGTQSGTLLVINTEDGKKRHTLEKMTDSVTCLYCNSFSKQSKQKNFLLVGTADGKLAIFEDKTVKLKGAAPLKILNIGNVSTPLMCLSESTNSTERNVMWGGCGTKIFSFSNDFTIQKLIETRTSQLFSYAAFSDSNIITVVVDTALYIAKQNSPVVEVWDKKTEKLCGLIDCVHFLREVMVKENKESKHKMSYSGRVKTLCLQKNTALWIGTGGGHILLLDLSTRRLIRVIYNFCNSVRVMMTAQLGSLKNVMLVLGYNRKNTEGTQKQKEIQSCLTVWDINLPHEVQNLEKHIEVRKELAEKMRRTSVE

Compound | IC50 [nM]
CN(C)c1cc(-c2n[nH]c3ccccc23)ccn1 [Example 30] | 33
CC1CN(c2cc(-c3n[nH]c4ccccc34)ccn2)CC(C)O1 (centres unmarked) [Example 31] | 12
CN1CCCC(CN(C)c2cc(-c3n[nH]c4ccccc34)ccn2)C1 (centres unmarked) [Example 32] | 75
c1ccc2c(-c3ccnc(NC4COC4)c3)n[nH]c2c1 [Example 33] | 3510
CN1CCC2(CCN(c3cc(-c4n[nH]c5ccccc45)ccn3)C2)C1 (centres unmarked) [Example 34] | 22
CN(C)[C@@H]1CCN(c2cc(-c3n[nH]c4ccccc34)ccn2)C1 [Example 35] | 28
OCC1CN(c2cc(-c3n[nH]c4ccccc34)ccn2)CCCO1 (centres unmarked) [Example 37] | 64
F[C@H]1COC[C@@H]1Nc1cc(-c2n[nH]c3ccccc23)ccn1 [Example 38] | 79
c1ccc2c(-c3ccnc(N4CCC(CN5CCOCC5)CC4)c3)n[nH]c2c1 [Example 40] | 28
O=C(O)[C@H]1CCCN(c2cc(-c3n[nH]c4ccccc34)ccn2)C1 [Example 41] | 24
c1ccc2c(-c3ccnc(NCCCn4ccnc4)c3)n[nH]c2c1 [Example 42] | 31
CN(C)CC1CN(c2cc(-c3n[nH]c4ccccc34)ccn2)CCO1 (centres unmarked) [Example 43] | 19
O=C1CCC(CNc2cc(-c3n[nH]c4ccccc34)ccn2)N1 (centres unmarked) [Example 44] | 26
CN(C)CCC(Nc1cc(-c2n[nH]c3ccccc23)ccn1)c1ccccn1 (centres unmarked) [Example 45] | 72
CN1CCN(c2cc(-c3n[nH]c4ccccc34)ccn2)CC1=O [Example 46] | 21
CN1CCC(O)(CNc2cc(-c3n[nH]c4ccccc34)ccn2)CC1 [Example 47] | 63
O=C1CN(c2cc(-c3n[nH]c4ccccc34)ccn2)CCCN1 [Example 48] | 54
O=C1CN(c2cc(-c3n[nH]c4ccccc34)ccn2)CCN1 [Example 49] | 23
CN1CCC(CN(C)c2cc(-c3n[nH]c4ccccc34)ccn2)CC1 [Example 50] | 40
C[C@@H]1C[C@@H](O)CN1c1cc(-c2n[nH]c3ccccc23)ccn1 [Example 51] | 33
O=C(O)[C@@H]1CCCN(c2cc(-c3n[nH]c4ccccc34)ccn2)C1 [Example 52] | 31

Compound | IC50 [nM]
c1ccc2c(-c3ccnc(N4CCN(CCCN5CCOCC5)CC4)c3)n[nH]c2c1 [Example 53] | 18
CN1CCC(CNc2cc(-c3n[nH]c4ccccc34)ccn2)C1 (centres unmarked) [Example 54] | 47
CN1CC=C2CN(c3cc(-c4n[nH]c5ccccc45)ccn3)CC21 (centres unmarked) [Example 55] | 14
CN(C)CC1(O)CCN(c2cc(-c3n[nH]c4ccccc34)ccn2)CC1 [Example 56] | 25
O=C(CN1CCN(c2cc(-c3n[nH]c4ccccc34)ccn2)CC1)N1CCOCC1 [Example 57] | 6.1
OCCOCCNc1cc(-c2n[nH]c3ccccc23)ccn1 [Example 58] | 51
c1ccc2c(-c3ccnc(N4Cc5cncnc5C4)c3)n[nH]c2c1 [Example 59] | 37
CC1=NC2(CCCN(c3cc(-c4n[nH]c5ccccc45)ccn3)C2)C(=O)N1 (centres unmarked) [Example 60] | 202
O=C1CCCC2(CCN(c3cc(-c4n[nH]c5ccccc45)ccn3)CC2)N1 [Example 61] | 14
FC1CCN(CCCNc2cc(-c3n[nH]c4ccccc34)ccn2)C1 (centres unmarked) [Example 62] | 46
c1ccc2c(-c3ccnc(N4CCC5OCCC54)c3)n[nH]c2c1 (centres unmarked) [Example 63] | 40
c1ccc2c(-c3ccnc(NCCn4ccnc4)c3)n[nH]c2c1 [Example 64] | 35
CN(C)C(=O)CN1CCN(c2cc(-c3n[nH]c4ccccc34)ccn2)CC1 [Example 65] | 6.8
OCCC1CN(c2cc(-c3n[nH]c4ccccc34)ccn2)CCO1 (centres unmarked) [Example 66] | 15
COC1CN(c2cc(-c3n[nH]c4ccccc34)ccn2)C1 [Example 67] | 31
CN1CCC(Nc2cc(-c3n[nH]c4ccccc34)ccn2)C1=O (centres unmarked) [Example 68] | 108
CN(CC1CCC(=O)N1)c1cc(-c2n[nH]c3ccccc23)ccn1 (centres unmarked) [Example 69] | 75
NC(=O)C1CCCN(c2cc(-c3n[nH]c4ccccc34)ccn2)C1 (centres unmarked) [Example 71] | 16
O=C1CCN(c2cc(-c3n[nH]c4ccccc34)ccn2)CCN1 [Example 72] | 57
c1ccc2c(-c3ccnc(NCCN4CCOCC4)c3)n[nH]c2c1 [Example 73] | 35
c1ccc2c(-c3ccnc(NC4CCCOC4)c3)n[nH]c2c1 (centres unmarked) [Example 74] | 57

Compound | IC50 [nM]
CCN(CC)CCOc1ccc2[nH]nc(-c3ccnc(N4CCOCC4)c3)c2c1 [Example 80] | 37
FC(F)=CCCOc1ccc2[nH]nc(-c3ccnc(N4CCOCC4)c3)c2c1 [Example 81] | 4.8
c1cc(-c2n[nH]c3ccc(OCCN4CCOCC4)cc23)cc(N2CCOCC2)n1 [Example 82] | 4.7
c1cc(-c2n[nH]c3ccc(OCC4CCCO4)cc23)cc(N2CCOCC2)n1 (centres unmarked) [Example 83] | 5.4
CC(C)COc1ccc2[nH]nc(-c3ccnc(N4CCOCC4)c3)c2c1 [Example 84] | 5.9
c1cc(-c2n[nH]c3ccc(CN4CCCCC4)cc23)cc(N2CCOCC2)n1 [Example 88] | 164
CN(C)Cc1ccc2[nH]nc(-c3ccnc(N4CCOCC4)c3)c2c1 [Example 89] | 35
CNCc1ccc2[nH]nc(-c3ccnc(N4CCOCC4)c3)c2c1 [Example 90] | 302
COC1CN(Cc2ccc3[nH]nc(-c4ccnc(N5CCOCC5)c4)c3c2)C1 [Example 91] | 161
CN(Cc1ccc2[nH]nc(-c3ccnc(N4CCOCC4)c3)c2c1)C1CCCC1 [Example 92] | 54
N#CCCNCc1ccc2[nH]nc(-c3ccnc(N4CCOCC4)c3)c2c1 [Example 93] | 30
CN(Cc1ccc2[nH]nc(-c3ccnc(N4CCOCC4)c3)c2c1)Cc1ccco1 [Example 94] | 13
CCN(CC)CCNCc1ccc2[nH]nc(-c3ccnc(N4CCOCC4)c3)c2c1 [Example 95] | 273
c1cc(-c2n[nH]c3ccc(CNC4CCCNC4)cc23)cc(N2CCOCC2)n1 (centres unmarked) [Example 96] | 110
c1ccc(COc2ccnc(-c3ccc4[nH]nc(-c5ccnc(N6CCOCC6)c5)c4c3)n2)cc1 [Example 101] | 182
COc1cnccc1-c1ccc2[nH]nc(-c3ccnc(N4CCOCC4)c3)c2c1 [Example 102] | 0.2
CN(C)c1cc(-c2n[nH]c3ccc(Nc4cccc(S(C)(=O)=O)c4)cc23)ccn1 [Example 109] | 34
CC(C)CCNc1cc(-c2n[nH]c3ccc(Nc4cccc(S(C)(=O)=O)c4)cc23)ccn1 [Example 110] | 83
CCNc1cc(-c2n[nH]c3ccc(Nc4cccc(S(C)(=O)=O)c4)cc23)ccn1 [Example 111] | 35
CS(=O)(=O)c1cccc(Nc2ccc3[nH]nc(-c4ccnc(NC5CC5)c4)c3c2)c1 [Example 112] | 11

Same assay, conditions: Km ATP LanthaScreen; mean IC50 of several tests; read-out: LRRK2 IC50

Compound | IC50 [nM]
c1ccc2c(-c3ccnc(N4CCNCC4)c3)n[nH]c2c1 [Example 75] | 80
O=C1CCN(c2cc(-c3n[nH]c4ccccc34)ccn2)CC1 [Example 76] | 45
Brc1ccc2[nH]nc(-c3ccnc(N4CCOCC4)c3)c2c1 [Example 77] | 11
Oc1ccc2[nH]nc(-c3ccnc(N4CCOCC4)c3)c2c1 [Example 78] | 5.3
COc1ccc2[nH]nc(-c3ccnc(N4CCOCC4)c3)c2c1 [Example 79] | 7.4
FCOc1ccc2[nH]nc(-c3ccnc(N4CCOCC4)c3)c2c1 [Example 85] | 10.2
OCc1ccc2[nH]nc(-c3ccnc(N4CCOCC4)c3)c2c1 [Example 86] | 16.4
c1cc(-c2n[nH]c3ccc(CNCC4CC4)cc23)cc(N2CCOCC2)n1 [Example 87] | 424
c1cc(-c2ccc3[nH]nc(-c4ccnc(N5CCOCC5)c4)c3c2)ccn1 [Example 97] | 13.7
c1cncc(-c2ccc3[nH]nc(-c4ccnc(N5CCOCC5)c4)c3c2)c1 [Example 98] | 3.4
c1ccc(-c2ccc3[nH]nc(-c4ccnc(N5CCOCC5)c4)c3c2)nc1 [Example 99] | 13.7
Oc1cc(-c2ccc3[nH]nc(-c4ccnc(N5CCOCC5)c4)c3c2)ccn1 [Example 100] | 3.4
Brc1ccc2c(-c3ccnc(N4CCOCC4)c3)n[nH]c2c1 [Example 103] | 19
Cc1ccc2c(-c3ccnc(N4CCOCC4)c3)n[nH]c2c1 [Example 104] | 35
COc1ccc2c(-c3ccnc(N4CCOCC4)c3)n[nH]c2c1 [Example 105] | 30
N#Cc1ccc2c(-c3ccnc(N4CCOCC4)c3)n[nH]c2c1 [Example 106] | 49
O=C(c1ccccc1)c1ccc2[nH]nc(-c3ccnc(N4CCOCC4)c3)c2c1 [Example 107] | 3.4
CS(=O)(=O)c1cccc(Nc2ccc3[nH]nc(-c4ccnc(N5CCOCC5)c4)c3c2)c1 [Example 108] | 9.3
COc1ccccc1Nc1cc(-c2n[nH]c3ccc(Nc4cccc(S(C)(=O)=O)c4)cc23)ccn1 [Example 113] | 422
Cc1cccc(Nc2ccc3[nH]nc(-c4ccnc(N5CCOCC5)c4)c3c2)c1 [Example 114] | 28.7
CCN(c1cccc(C)c1)c1ccc2[nH]nc(-c3ccnc(N4CCOCC4)c3)c2c1 [Example 115] | 1570
c1ccc(Cc2ccc3[nH]nc(-c4ccnc(N5CCOCC5)c4)c3c2)cc1 [Example 116] | 45
COc1ccnc(F)c1-c1ccc2[nH]nc(-c3ccnc(N4CCOCC4)c3)c2c1 [Example 117] | 3.4
Oc1ccncc1-c1ccc2[nH]nc(-c3ccnc(N4CCOCC4)c3)c2c1 [Example 118] | 70
